According to PMC11904993, “Humanized Candida and NanoBiT Assays Expedite Discovery of Bdf1 Bromodomain Inhibitors With Antifungal Potential” (Advanced Science, 2025):
Values joined by “and” are separate entries in the source; they are usually repeats but may differ in a detail not shown here. Identical values can stand only once. Like-named read-outs stand apart in the source and are kept apart here.

Tests used:
[1] = molecular target: T1, CaBdf1 BD1 (Candida albicans, UniProt Q5A4W8); experiment: HTRF assay, inhibition of H4ac4 peptide binding; set-up: species or system C. albicans
T1 construct: BD1 (residues 193–327) and BD2 (residues 361–501) from CaBdf1 (Uniprot ID Q5A4W8); made in house; host or cells: E. coli BL21(DE3)

[2] = molecular target: T2, CaBdf1 BD2 (Candida albicans, UniProt Q5A4W8); experiment: HTRF assay, inhibition of H4ac4 peptide binding; set-up: species or system C. albicans
T2 construct: BD1 (residues 193–327) and BD2 (residues 361–501) from CaBdf1 (Uniprot ID Q5A4W8); made in house; host or cells: E. coli BL21(DE3)

[3] = molecular target: C. auris Bdf1 BD2 (Candidozyma auris (Candida auris), UniProt A0AAW0VEM6); experiment: HTRF assay, inhibition of H4ac4 peptide binding
[4] = system: C. glabrata expressing humanized Bdf1 (Brd4 BDs); experiment: Growth inhibition in liquid media, humanized C. glabrata strains
Experimental: Growth on Liquid Media with C. glabrata Lab Strains: Cells were grown at 30 °C in SC+M+C‐U medium (SC medium with 5 mM methionine, 0.25 mM cysteine, without uracil) to an OD600 of 0.5–0.8. […] Plates were incubated at 30 °C and OD600 was measured using a Multiskan FC Microplate Photometer (Thermo Fisher).

[5] = read-out: HTRF signal, normalized (Figure 5A data)

T2 sequence (Q5A4W8 361-501): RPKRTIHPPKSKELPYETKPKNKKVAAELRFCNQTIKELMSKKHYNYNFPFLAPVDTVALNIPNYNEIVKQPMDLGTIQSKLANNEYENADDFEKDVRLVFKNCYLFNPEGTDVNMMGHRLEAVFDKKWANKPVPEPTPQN
T1 sequence (Q5A4W8 193-327): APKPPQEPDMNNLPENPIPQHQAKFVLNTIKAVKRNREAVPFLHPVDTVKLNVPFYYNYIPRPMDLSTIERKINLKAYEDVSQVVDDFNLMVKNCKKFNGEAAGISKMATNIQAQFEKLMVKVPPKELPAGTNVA
Sequence of C. auris Bdf1 BD2 (A0AAW0VEM6 entry or part of it): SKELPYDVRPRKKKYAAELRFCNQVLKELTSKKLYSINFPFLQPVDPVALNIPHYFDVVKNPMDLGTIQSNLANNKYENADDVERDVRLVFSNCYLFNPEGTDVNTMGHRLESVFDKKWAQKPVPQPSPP

CC(=O)N1c2ccc(-c3ccc(C(=O)O)cc3)cc2C(Nc2ccc(Cl)cc2)CC1C (stereo not shown) [I-BET726]
remaining activity at 0.0021 µM ([1]; CaBD1, 2.10 nM, read-out: HTRF signal, normalized (Figure 5A data)): 103% | remaining activity at 0.01311 µM ([1]; CaBD1, 13.11 nM, read-out: HTRF signal, normalized (Figure 5A data)): 96% | remaining activity at 0.03277 µM ([1]; CaBD1, 32.77 nM, read-out: HTRF signal, normalized (Figure 5A data)): 90.6% | remaining activity at 0.08192 µM ([1]; CaBD1, 81.92 nM, read-out: HTRF signal, normalized (Figure 5A data)): 66.5% | remaining activity at 0.2048 µM ([1]; CaBD1, 204.8 nM, read-out: HTRF signal, normalized (Figure 5A data)): 27% | remaining activity at 0.512 µM ([1]; CaBD1, 512 nM, read-out: HTRF signal, normalized (Figure 5A data)): 5.16% | IC50 ([1]; Fig 5A, four replicates, read-out: IC50 (μM) BD1, C. alb. Bdf1): 0.27 ± 0.02 µM | remaining activity at 0.00524 µM [1, 5]: 103% | remaining activity at 0.01311 µM [1, 5]: 99.9% | remaining activity at 1.28 µM [1, 5]: 2.74% | remaining activity at 3.2 µM [1, 5]: 1.61% | remaining activity at 0.0021 µM ([2]; CaBD2, 2.10 nM, read-out: HTRF signal, normalized (Figure 5A data)): 108% | remaining activity at 0.01311 µM ([2]; CaBD2, 13.11 nM, read-out: HTRF signal, normalized (Figure 5A data)): 98.4% | remaining activity at 0.03277 µM ([2]; CaBD2, 32.77 nM, read-out: HTRF signal, normalized (Figure 5A data)): 95.1% | remaining activity at 0.2048 µM ([2]; CaBD2, 204.8 nM, read-out: HTRF signal, normalized (Figure 5A data)): 61.4% | remaining activity at 0.512 µM ([2]; CaBD2, 512 nM, read-out: HTRF signal, normalized (Figure 5A data)): 25.6% | remaining activity at 1.28 µM ([2]; CaBD2, 1280 nM, read-out: HTRF signal, normalized (Figure 5A data)): 11.4% | IC50 ([2]; Fig 5A, four replicates, read-out: IC50 (μM) BD2, C. alb. Bdf1): 0.63 ± 0.05 µM | remaining activity at 0.00524 µM [2, 5]: 102% | remaining activity at 0.0021 µM ([3]; CauBD2, 2.10 nM, read-out: HTRF signal, normalized (Figure 5A data)): 97.4% | remaining activity at 0.01311 µM ([3]; CauBD2, 13.11 nM, read-out: HTRF signal, normalized (Figure 5A data)): 85.4% | remaining activity at 0.03277 µM ([3]; CauBD2, 32.77 nM, read-out: HTRF signal, normalized (Figure 5A data)): 75% | remaining activity at 0.08192 µM ([3]; CauBD2, 81.92 nM, read-out: HTRF signal, normalized (Figure 5A data)): 52.6% | remaining activity at 0.2048 µM ([3]; CauBD2, 204.8 nM, read-out: HTRF signal, normalized (Figure 5A data)): 31% | remaining activity at 0.512 µM ([3]; CauBD2, 512 nM, read-out: HTRF signal, normalized (Figure 5A data)): 12.9% | remaining activity at 3.2 µM ([3]; CauBD2, 3200 nM, read-out: HTRF signal, normalized (Figure 5A data)): 5.12% | remaining activity at 8 µM ([3]; CauBD2, 8000 nM, read-out: HTRF signal, normalized (Figure 5A data)): 5.06% | IC50 ([3]; Fig 5A, four replicates, read-out: IC50 (μM) BD2, C. aur. Bdf1): 0.23 ± 0.02 µM | remaining activity at 0.00524 µM [3, 5]: 90.6% | remaining activity at 8 µM [3, 5]: 2.46% | %Growth ([4]; Fig 3E, 50 µM, BDF1-hBD1-flag, Exp 1-3): 2.33% and 1.84% and 1.76% | %Growth ([4]; Fig 3E, 50 µM, BDF1-hBD2-flag, Exp 1-3): 3.8% and 4.25% and 4% | %Growth ([4]; Fig 3E, 50 µM, humanized BDF1-flag, Exp 1-3): 0.38% and 2.64% and 0.389% | %Growth ([4]; Fig 3F, BDF1-hBD1-flag, 0.0137 µM): 90.66% and 83.58% and 76.59% | %Growth ([4]; Fig 3F, BDF1-hBD1-flag, 0.0412 µM): 77.41% and 78.96% and 63.08% | %Growth ([4]; Fig 3F, BDF1-hBD1-flag, 0.1235 µM): 61.07% and 68.69% and 57.31% | %Growth ([4]; Fig 3F, BDF1-hBD1-flag, 0.3704 µM): 41.42% and 40.29% and 42% | %Growth ([4]; Fig 3F, BDF1-hBD1-flag, 1.1111 µM): 16.57% and 19.25% and 16.52% | %Growth ([4]; Fig 3F, BDF1-hBD1-flag, 3.3333 µM): 5.27% and 7.44% and 4.82% | %Growth ([4]; Fig 3F, BDF1-hBD2-flag, 0.0137 µM): 47.68% and 58.64% and 43.37% | %Growth ([4]; Fig 3F, BDF1-hBD2-flag, 0.0412 µM): 32.5% and 27.54% and 41.03% | %Growth ([4]; Fig 3F, BDF1-hBD2-flag, 0.1235 µM): 16.07% and 15.16% and 20.65% | %Growth ([4]; Fig 3F, BDF1-hBD2-flag, 0.3704 µM): 9.64% and 8.03% and 12.17% | %Growth ([4]; Fig 3F, BDF1-hBD2-flag, 1.1111 µM): 6.25% and 6.02% and 7.12% | %Growth ([4]; Fig 3F, BDF1-hBD2-flag, 3.3333 µM): 4.46% and 5.24% and 6.4% | %Growth ([4]; Fig 3F, humanized BDF1-flag, 0.0137 µM): 42.92% and 50.6% and 44.95% | %Growth ([4]; Fig 3F, humanized BDF1-flag, 0.0412 µM): 25.63% and 22.37% and 34.68% | %Growth ([4]; Fig 3F, humanized BDF1-flag, 0.1235 µM): 13.13% and 10.59% and 17.61% | %Growth ([4]; Fig 3F, humanized BDF1-flag, 0.3704 µM): 5.63% and 5.85% and 8.26%
